Patent US9120812B2, “Pyrimidooxazocine derivatives as mTOR-inhibitors” (SANOFI, priority 2012, dated 2015)

Key:
[1] = target: mTOR (human recombinant aa mTOR 1360-2549) (Homo sapiens (Human), UniProt P42345); assay: mTOR enzymatic test by TR-FRET (phosphorylation of GFP-4EBP1); assay type: biochemical
In short: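 After a 30 min room-temperature kinase reaction, EDTA (10 mM final) and Tb-labelled phospho-Thr46 antibody (2 nM final) were added and incubated 60 min. Energy transfer from Tb to phosphorylated GFP-4EBP1 was read at 340 nm excitation, emissions 490/520 nm. Values derive from the 520/490 fluorescence ratio.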

U87MG tumour cells = assay: Test of in vitro proliferation of U87MG tumour cells; assay type: cell-based; details: Homo sapiens, U-87 MG, 72 h, U87MG cells, 72 hours; read-out: U87 Cell Proliferation IC50
Method: Model 4: Test of in vitro Proliferation of U87MG Tumour Cells.
The cell growth is determined with the reagent CellTiter 96 AQueous One Solution Cell Proliferation Assay from Promega (Cat. No. G3581).

PI3Kα (p110α/p85α) = PI3Kα (p110α/p85α) (Homo sapiens (Human), UniProt P42336); assay: PI3Kα enzymatic test by measuring the consumption of ATP; assay type: biochemical
In short: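 ATP consumption read out by KinaseGlo luminescence after a 90 min reaction of 1.7 μg/ml PI3Kα (p110α/p85α) with 2 μM ATP and 50 μM PIP2, buffered at pH 7.5 (Tris, 10 mM MgCl2, 1 mM EGTA, 0.03% Chaps, 1 mM DTT). Threefold dilution series over ≥10 000-fold range yield IC50.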

Akt-pS473 in U87MG cells = details: Homo sapiens, U-87 MG, read-out: U87 Akt-pS473 % Inhibition or IC50, nM (IC50), U87MG cells

mTOR (human recombinant aa mTOR 1360-2549), sequence (P42345 1360-2549): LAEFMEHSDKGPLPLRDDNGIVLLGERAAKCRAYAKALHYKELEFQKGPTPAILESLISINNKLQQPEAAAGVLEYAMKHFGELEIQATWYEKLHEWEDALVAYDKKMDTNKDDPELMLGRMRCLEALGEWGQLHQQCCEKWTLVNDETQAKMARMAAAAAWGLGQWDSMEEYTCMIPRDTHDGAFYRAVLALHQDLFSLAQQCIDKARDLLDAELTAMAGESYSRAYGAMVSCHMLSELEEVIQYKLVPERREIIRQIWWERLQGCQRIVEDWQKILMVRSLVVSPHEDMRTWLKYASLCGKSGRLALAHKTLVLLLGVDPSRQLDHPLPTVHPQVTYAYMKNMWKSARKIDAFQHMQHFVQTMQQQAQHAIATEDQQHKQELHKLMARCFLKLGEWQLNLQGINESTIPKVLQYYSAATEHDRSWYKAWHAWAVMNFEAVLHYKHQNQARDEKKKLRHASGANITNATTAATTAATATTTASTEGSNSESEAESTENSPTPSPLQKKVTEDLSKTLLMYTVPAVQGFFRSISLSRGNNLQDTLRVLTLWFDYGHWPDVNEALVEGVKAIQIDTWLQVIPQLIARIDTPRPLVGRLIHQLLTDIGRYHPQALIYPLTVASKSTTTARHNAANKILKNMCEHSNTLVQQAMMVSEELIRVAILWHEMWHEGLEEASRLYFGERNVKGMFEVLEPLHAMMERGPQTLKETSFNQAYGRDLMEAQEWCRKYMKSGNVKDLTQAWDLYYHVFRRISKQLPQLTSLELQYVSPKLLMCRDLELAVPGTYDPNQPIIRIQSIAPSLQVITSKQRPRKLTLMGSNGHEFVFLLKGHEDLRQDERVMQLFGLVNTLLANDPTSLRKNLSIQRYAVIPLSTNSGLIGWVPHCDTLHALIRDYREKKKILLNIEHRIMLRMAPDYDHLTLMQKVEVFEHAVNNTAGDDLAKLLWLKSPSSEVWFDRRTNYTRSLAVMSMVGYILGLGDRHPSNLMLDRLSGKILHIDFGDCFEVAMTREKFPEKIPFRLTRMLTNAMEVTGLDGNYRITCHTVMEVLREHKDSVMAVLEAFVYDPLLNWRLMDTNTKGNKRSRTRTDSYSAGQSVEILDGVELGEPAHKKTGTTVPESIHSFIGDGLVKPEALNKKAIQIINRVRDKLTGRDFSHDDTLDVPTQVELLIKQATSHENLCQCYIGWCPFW
PI3Kα (p110α/p85α), sequence (P42336 whole entry): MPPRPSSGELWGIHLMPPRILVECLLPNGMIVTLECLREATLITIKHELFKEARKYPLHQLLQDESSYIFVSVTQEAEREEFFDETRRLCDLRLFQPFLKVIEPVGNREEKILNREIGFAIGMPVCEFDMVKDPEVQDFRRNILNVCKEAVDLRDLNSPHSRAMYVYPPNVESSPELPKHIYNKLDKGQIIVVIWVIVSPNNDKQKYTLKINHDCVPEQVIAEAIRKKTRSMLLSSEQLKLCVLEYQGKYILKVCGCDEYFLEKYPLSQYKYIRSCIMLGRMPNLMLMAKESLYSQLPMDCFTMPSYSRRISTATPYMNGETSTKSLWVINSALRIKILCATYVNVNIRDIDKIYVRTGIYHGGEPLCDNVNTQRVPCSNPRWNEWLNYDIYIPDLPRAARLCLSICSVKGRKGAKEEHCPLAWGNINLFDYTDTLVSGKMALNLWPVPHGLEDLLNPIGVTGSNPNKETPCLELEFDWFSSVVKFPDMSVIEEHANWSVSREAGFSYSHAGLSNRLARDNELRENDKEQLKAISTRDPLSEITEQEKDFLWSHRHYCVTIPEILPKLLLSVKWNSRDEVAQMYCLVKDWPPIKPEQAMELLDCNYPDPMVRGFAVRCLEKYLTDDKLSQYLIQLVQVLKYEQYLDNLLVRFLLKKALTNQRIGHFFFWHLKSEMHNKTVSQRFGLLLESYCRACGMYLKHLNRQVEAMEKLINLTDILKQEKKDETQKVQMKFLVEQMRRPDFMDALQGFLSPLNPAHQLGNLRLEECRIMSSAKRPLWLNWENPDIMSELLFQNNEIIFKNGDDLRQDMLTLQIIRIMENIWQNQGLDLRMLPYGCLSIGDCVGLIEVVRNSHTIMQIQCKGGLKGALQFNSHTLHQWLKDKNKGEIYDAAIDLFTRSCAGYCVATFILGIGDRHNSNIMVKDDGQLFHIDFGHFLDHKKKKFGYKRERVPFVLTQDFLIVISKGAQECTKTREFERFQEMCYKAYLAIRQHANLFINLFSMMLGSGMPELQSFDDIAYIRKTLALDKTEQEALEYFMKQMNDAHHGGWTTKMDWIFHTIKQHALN
PI3Kα (p110α/p85α), sequence (P27986 whole entry partner): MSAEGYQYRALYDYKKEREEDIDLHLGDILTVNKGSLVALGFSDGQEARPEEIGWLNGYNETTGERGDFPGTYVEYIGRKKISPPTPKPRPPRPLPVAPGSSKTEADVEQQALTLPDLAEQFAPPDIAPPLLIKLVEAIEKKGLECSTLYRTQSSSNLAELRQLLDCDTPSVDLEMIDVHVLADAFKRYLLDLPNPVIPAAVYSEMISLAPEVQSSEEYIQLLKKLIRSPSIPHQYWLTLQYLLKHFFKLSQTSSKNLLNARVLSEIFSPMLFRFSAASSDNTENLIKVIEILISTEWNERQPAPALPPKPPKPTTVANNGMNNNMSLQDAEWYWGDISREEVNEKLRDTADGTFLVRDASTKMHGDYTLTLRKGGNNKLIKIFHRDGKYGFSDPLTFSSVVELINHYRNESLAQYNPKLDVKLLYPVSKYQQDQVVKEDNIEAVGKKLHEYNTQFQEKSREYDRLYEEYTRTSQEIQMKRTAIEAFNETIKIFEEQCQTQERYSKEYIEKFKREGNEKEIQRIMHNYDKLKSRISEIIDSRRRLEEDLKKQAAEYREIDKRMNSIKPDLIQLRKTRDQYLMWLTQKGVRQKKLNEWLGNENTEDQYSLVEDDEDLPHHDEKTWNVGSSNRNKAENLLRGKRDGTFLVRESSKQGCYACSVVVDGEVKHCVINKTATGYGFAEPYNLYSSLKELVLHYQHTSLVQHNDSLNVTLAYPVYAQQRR

SMILES | IC50 [1] [µM] | IC50 (U87MG tumour cells) [µM] | PI3Ka IC50 (PI3Kα (p110α/p85α)) [µM] | IC50 (Akt-pS473 in U87MG cells) [nM]
CCN1CC(C)(C)Oc2nc(N3CCOC[C@@H]3C)nc(-c3ccc(NC(=O)Nc4ccc(N5CC6CCC(C5)O6)nc4)c(F)c3)c2C1=O [Example 258, 1-{4-[6-Ethyl-8,8-dimethyl-2-((S)-3-methylmorpholin-4-yl)-5-oxo-5,6,7,8-tetrahydro-9-oxa-1,3,6-triazabenzocyclohepten-4-yl]-2-fluorophenyl}-3-[6-(8-oxa-3-azabicyclo[3.2.1]oct-3-yl)pyridin-3-yl]urea] | 0.053 | 0.125 | 2.94 | 20
CCN1CC(C)(C)Oc2nc(N3C4CCC3COC4)nc(-c3ccc(NC(=O)Nc4ccc(N5CC6CCC(C5)O6)nc4)c(F)c3)c2C1=O [Example 259, 1-{4-[6-Ethyl-8,8-dimethyl-2-(3-oxa-8-azabicyclo[3.2.1]oct-8-yl)-5-oxo-5,6,7,8-tetrahydro-9-oxa-1,3,6-triazabenzocyclohepten-4-yl]-2-fluorophenyl}-3-[6-(8-oxa-3-azabicyclo[3.2.1]oct-3-yl)pyridin-3-yl]urea] | 0.087 | 0.087 | >10 | 16
CCN1CC(C)(C)Oc2nc(N3CC4CCC(C3)O4)nc(-c3ccc(NC(=O)Nc4ccnc(N5CC6CCC(C5)O6)c4)c(F)c3)c2C1=O [Example 260, 1-{4-[6-Ethyl-8,8-dimethyl-2-(8-oxa-3-azabicyclo[3.2.1]oct-3-yl)-5-oxo-5,6,7,8-tetrahydro-9-oxa-1,3,6-triazabenzocyclohepten-4-yl]-2-fluorophenyl}-3-[2-(8-oxa-3-azabicyclo[3.2.1]oct-3-yl)pyridin-4-yl]urea] | 0.174 | 0.095 | >10 | 24
